Among the data in PubChem BioAssay AID2743 (NMMLSC, 2010) are GFP fluorescence (kMESF) values, retold here.

A short description of the assay: potency of AGP1-GFP expression modulators in yeast, dose response, cell-based, flow cytometry, S. cerevisiae, MLPCN hits (AID 2743). As to conditions: S. cerevisiae AGP1-GFP strain, flow cytometry GFP, 3 h; at 33 µM (top of the series). In general terms: In flow cytometry, cells or beads pass a laser one at a time.

Calls of active or inactive are those of the source.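 The calls were made as follows: active = fitted half-maximal concentration for change in GFP expression of 33 µM or less; inactive = the rest.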

Turning to `O=C(O)c1cccc(S(=O)(=O)Nc2ccc(S(=O)(=O)N3CCOCC3)cc2)c1`, the GFP fluorescence (kMESF) is 36.9 kMESF (inactive).
As to `Cc1ccc(/C=C/C(=O)c2ccc([N+](=O)[O-])o2)cc1`, the GFP fluorescence (kMESF) is 42.9 kMESF (inactive).
Next, `C/C(=N\Nc1ncnc2sc(C)c(C)c12)c1ccccn1`: 26.5 kMESF (inactive).
In the case of `O=C1CC(c2ccccc2)=NN1c1nc(-c2ccccc2)cs1` it was 26 kMESF (inactive).
In the case of `O=C(/C=C/c1ccccc1[N+](=O)[O-])c1ccccc1Br` it was 50.7 kMESF (inactive); in that of `C#CCOCCOCCOCCNc1nc(N2CCN(C(=O)CCCCCCCCCCNC(=O)[C@H](CCCCN)n3cc(CCO)nn3)CC2)nc(N2CCN(C(=O)CCCCCCCCCCNC(=O)[C@H](CCCN=C(N)N)n3cc(C[C@@H](C)CC)nn3)CC2)n1`, 45.1 kMESF (inactive); in that of `COc1ccc(N2C(=O)C(Cl)=C(NCc3ccccc3)C2=O)cc1`, 40.6 kMESF (inactive).
In the case of `Cc1cc(C)c(OCC(=O)Nc2nc(-c3ccccn3)cs2)c(C)c1`, the GFP fluorescence (kMESF) was 28.8 kMESF (inactive).
Regarding `COc1ccc(/C=C/C(=O)c2cc(Br)ccc(=O)c2O)cc1`, the GFP fluorescence (kMESF) was -39.3 kMESF (inactive).
For the compound `N#Cc1c2ccc([N+](=O)[O-])cc2[n+]([O-])n1-c1ccccc1`, the GFP fluorescence (kMESF) is 27.6 kMESF (inactive).
As to `COc1cccc2cc(-c3nc4ccccc4o3)c(=O)oc12`, the GFP fluorescence (kMESF) was 20.9 kMESF (inactive).
In the case of `O=C1C=C(c2ccccc2)C(=O)N1Nc1ccccc1` it was 40.8 kMESF (inactive); in that of `COc1cc(NC(=O)c2ccc(C)cc2)ccc1NC(=O)c1cc2ccccc2o1`, 43.8 kMESF (inactive).
In the case of `CC(C)(C)C1C/C(=C/c2ccccn2)C(=O)/C(=C/c2ccccn2)C1` (configuration not stated) it was 32.6 kMESF (inactive); in that of `CCCc1ccc(OCC(=O)NNC(=S)NC(=O)c2ccco2)cc1`, 38.1 kMESF (inactive).
Next, `CC(Oc1cccc(Cl)c1)C(=O)Nc1nc(-c2ccccn2)cs1` (configuration not stated): 50.7 kMESF (inactive); `COc1ccc([N+](=O)[O-])c(S(=O)(=O)c2ccccc2)n1`: 47.5 kMESF (inactive); `CCCCCn1c(=O)c(C(=O)Nc2nc3ccccc3[nH]2)c(O)c2ccccc21`: 36.9 kMESF (inactive).
With `O=C1c2ccccc2C(=O)N1OS(=O)(=O)c1ccc(F)cc1`, the GFP fluorescence (kMESF) is 27 kMESF (inactive).
As to `COc1ccc(C2=CC3=C(Br)C(=O)C(C)(O)C(=O)C3=CO2)cc1` (configuration not stated), the GFP fluorescence (kMESF) is 2.12 kMESF (inactive).
With `O=c1c(-c2ccc(Cl)cc2)[n+]([O-])c2ccccc2n1O`, the GFP fluorescence (kMESF) was 38.1 kMESF (inactive).
As to `Cc1ccc(C(=O)NNC(=S)NC(=O)c2ccco2)cc1`, the GFP fluorescence (kMESF) is 44.1 kMESF (inactive).
In the case of `C/C(=N/NC(=O)c1ccc(C(C)(C)C)cc1)c1ccccn1` it was 55.7 kMESF (inactive).
Next, `O=C(NC(=S)NNC(=O)c1cnccn1)c1ccc(Cl)cc1`: 37.6 kMESF (inactive); `Cc1cc(Br)c2c(c1)/C(=C/C(=O)c1cccs1)C(=O)N2`: 38.7 kMESF (inactive).
Next, `COc1cc(/C=C2\C(=O)ON=C2c2ccccc2)cc(Br)c1O`: 28.7 kMESF (inactive); `N#C/C(=C\c1ccccn1)c1nc2ccccc2s1`: 41.8 kMESF (inactive).
For `O=c1oc2cc(Oc3c([N+](=O)[O-])cc(C(F)(F)F)cc3[N+](=O)[O-])ccc2c2c1CCCC2`, the GFP fluorescence (kMESF) was 40 kMESF (inactive).
Next, `COc1ccc(/C=C/C(=O)NC(=S)NNC(=O)c2cnccn2)cc1`: 38.3 kMESF (inactive); `CCSc1nnc(NC(=O)c2ccccn2)s1`: 39.6 kMESF (inactive); `Cc1[nH]c(-c2ccccn2)nc(=S)c1Cl`: 51 kMESF (inactive).
For the compound `Cc1cc(=O)oc2cc(Oc3ccc([N+](=O)[O-])cc3C(F)(F)F)ccc12`, the GFP fluorescence (kMESF) is 42.1 kMESF (inactive).
In the case of `CC(OC(=O)c1ccco1)C(=O)Nc1nc(-c2ccccc2)cs1` (configuration not stated) it was 40.9 kMESF (inactive).
Next, `Nc1nc2ncc(CNc3ccc(C(=O)N[C@@H](CCC(=O)O)C(=O)O)cc3)nc2c(=O)[nH]1`: 29.1 kMESF (inactive); `Oc1c(CN2CCCCC2)cc(Br)c2cccnc12`: 46.9 kMESF (inactive).
Next, `CC1=C/C(=N\OS(=O)(=O)c2ccccc2)C(C(C)C)=CC1=O`: 28.8 kMESF (inactive); `O=S(=O)(c1ccccc1)c1ccc(C(F)(F)F)cn1`: 43.8 kMESF (inactive).
For the compound `Cc1ccc(/C=C2/C(=O)ON=C2c2ccccc2)o1`, the GFP fluorescence (kMESF) is 40.1 kMESF (inactive).
`O=C(Cc1ccc(Cl)cc1)NNC(=S)NC(=O)c1cccs1`: the GFP fluorescence (kMESF) is 36.9 kMESF (inactive).
Next, `Cc1c(Br)c(=O)oc2c(Br)c(O)c(O)cc12`: 38 kMESF (inactive); `Cc1ccc(/C(N)=N/OC(=O)c2ccc(F)cc2)cc1`: 23.1 kMESF (inactive).
For `CC(C)[C@@]1(c2ccccc2)ON(c2ccccc2C(F)(F)F)C1=O`, the GFP fluorescence (kMESF) is 37.1 kMESF (inactive).
Next, `O=C(/C=C/c1cc(Br)ccc1O)c1ccco1`: 40.2 kMESF (inactive); `CCc1nc2ccccc2c(=O)n1NC(=O)c1c(O)c2ccccc2n(CC)c1=O`: 18.7 kMESF (inactive); `Clc1cnc(N/N=C/c2cccs2)c(Cl)c1`: 40.5 kMESF (inactive).
Next, `O=C1c2ccccc2C(=O)C2OC12` (configuration not stated): 33.7 kMESF (inactive); `Nc1ccc2ccc3cccc[n+]3c2c1`: 42.9 kMESF (inactive); `COc1ccc(-c2cc(C(F)(F)F)nc(S(C)(=O)=O)n2)cc1`: 36 kMESF (inactive).
Next, `O=C(Nc1ccccc1)ON=C1CCCC1`: 21.6 kMESF (inactive); `CCn1c(=O)c(C(C)=O)c(O)c2ccccc21`: 41.4 kMESF (inactive).
Take `Cc1c(N2C(=O)/C(=C\c3ccccc3O)SC2=S)c(=O)n(-c2ccccc2)n1C`: the GFP fluorescence (kMESF) was 44.8 kMESF (inactive).
In the case of `O=C(COc1ccccc1)NNC(=S)NC(=O)c1ccc(Cl)cc1Cl` it was 29.9 kMESF (inactive).
Turning to `N/C(=N\OC(=O)c1ccccc1Cl)c1ccc(Cl)cc1`, the GFP fluorescence (kMESF) is 25.7 kMESF (inactive).
Turning to `O=C(/C=C/c1ccccc1Cl)c1ccccc(=O)c1O`, the GFP fluorescence (kMESF) was 6.58 kMESF (inactive).
Next, `Cc1c(C(=O)Nc2nc(-c3ccccn3)cs2)oc2ccccc12`: 35.6 kMESF (inactive); `C#CCOCCOCCOCCNc1nc(N2CCN(C(=O)CCCCCCCCCCNC(=O)[C@@H](CCC(=O)O)n3cc(CCCCCN)nn3)CC2)nc(N2CCN(C(=O)CCCCCCCCCCNC(=O)[C@H](CCCCN)n3cc(C[C@@H](C)CC)nn3)CC2)n1`: 51.4 kMESF (inactive); `O=C1N(c2ccccc2C(F)(F)F)O[C@]1(c1ccccc1)C1CCCCC1`: 34.3 kMESF (inactive).
